IC50 and half-life data for six compounds are collected here from patent US9809623B2, “α4β7 peptide monomer and dimer antagonists” (Protagonist Therapeutics, Inc., priority 2014, dated 2017).

The target of one series is α4β1 (Homo sapiens, UniProt P05556+P13612). As to the kind of experiment: α4β1-VCAM Cell Adhesion Assay (Jurkat E6.1 human cells). Also noted: host or cells: Jurkat E6.1 human T cells. The settings on record: Table 4-B; read-out: Cell Adhesion α4β1 IC50. The series is classed as cell-based. Put shortly:
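Jurkat E6.1 cells in DMEM with 0.1% BSA, 10 mM HEPES pH 7 and 1 mM MnCl2 were added (200,000/well) with serially diluted peptides to rh VCAM-1-Fc-coated wells (400 ng/well) for 30-45 min at 37 °C. Adherent cells after washing were quantified by MTT, absorbance 570 nm, with no-cell background subtracted for dose response.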

A short description of series [1]: Simulated Gastric Fluid (SGF) Assay. The series is classed as in vitro ADME. To be noted: pig, simulated gastric fluid (SGF) with porcine pepsin, pH 2; Table 4-C, t1/2. The method, then: SGF was prepared by adding 20 mg NaCl, 32 mg porcine pepsin (MP Biochemicals, catalog 02102599), and 70 μl HCl to 10 ml water (final pH=2). Aliquots of SGF (0.5 ml each) were pre-warmed at 37° C. For each peptide tested, to start the reaction, 1 μl of peptide stock solution (10 mM in DMSO) was added to 0.5 ml SGF and thoroughly mixed such that the final peptide concentration was 20 μM. The reactions were incubated at 37° C. with gentle shaking. At each time point (0, 15, 30, 60 min), 50 μl aliquots were removed and added to 200 ul acetonitrile containing 0.1% formic acid to quench the reaction. Samples were stored at 4° C. until the end of the experiment and centrifuged at 10,000 rpm for 5 minutes. Aliquots of the supernatant were removed, diluted 1:1 into distilled water containing internal standard, and analyzed by LCMS/MS. Percent remaining at each timepoint was calculated based on the peak area response ratio of test compound to internal standard. Time 0 was set to 100%, and all later timepoints were calculated relative to time 0. Half-lives were calculated by fitting to a first-order exponential decay equation using GraphPad.

A further series has as its target T1, α4β7 (Mus musculus, UniProt P26011+Q00651).
T1 construct: host or cells: TK1 mouse T cells
The experiment in a line: α4β7 Cell Adhesion Assay (Mouse), TK1 cells. The format is cell-based. To be noted: Table 4-B; read-out: Cell Adhesion α4β7 Mouse IC50. Put shortly: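 Mouse TK1 cells in DMEM with 0.1% BSA, 10 mM HEPES pH 7 and 1 mM MnCl2 were allowed to adhere for 30-45 min at 37 °C to plates coated with recombinant human MAdCAM-1 Fc (200 ng/well) in the presence of serially diluted peptides. Adherent cells were quantified by MTT absorbance at 570 nm, with no-cell background subtracted for dose response.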

Numbered stars: 1 amine (or outer) side, 2 acyl side, 3 side chain; on linkers, the order of the positions; unused ones are H or OH. Bridge positions count the residues as written; N and C are the ends. Square brackets hold non-standard residues; d marks the D form. Peptide text beside a SMILES is read from it. I, II: the chains in the order shown. 2Nal = N[C@@H](Cc1ccc2ccccc2c1)C(=O)O; Diglycolyl = O=C(COCC(=O)[*:2])[*:1]; NMeR = CN[C@@H](CCCNC(=N)N)C(=O)O; NMeK = CN[C@@H](CCCCN)C(=O)O; Pen = CC(C)(S)[C@H](N)C(=O)O; dNMeK = CN[C@H](CCCCN)C(=O)O

Chain of α4β1 (P13612 34-1032): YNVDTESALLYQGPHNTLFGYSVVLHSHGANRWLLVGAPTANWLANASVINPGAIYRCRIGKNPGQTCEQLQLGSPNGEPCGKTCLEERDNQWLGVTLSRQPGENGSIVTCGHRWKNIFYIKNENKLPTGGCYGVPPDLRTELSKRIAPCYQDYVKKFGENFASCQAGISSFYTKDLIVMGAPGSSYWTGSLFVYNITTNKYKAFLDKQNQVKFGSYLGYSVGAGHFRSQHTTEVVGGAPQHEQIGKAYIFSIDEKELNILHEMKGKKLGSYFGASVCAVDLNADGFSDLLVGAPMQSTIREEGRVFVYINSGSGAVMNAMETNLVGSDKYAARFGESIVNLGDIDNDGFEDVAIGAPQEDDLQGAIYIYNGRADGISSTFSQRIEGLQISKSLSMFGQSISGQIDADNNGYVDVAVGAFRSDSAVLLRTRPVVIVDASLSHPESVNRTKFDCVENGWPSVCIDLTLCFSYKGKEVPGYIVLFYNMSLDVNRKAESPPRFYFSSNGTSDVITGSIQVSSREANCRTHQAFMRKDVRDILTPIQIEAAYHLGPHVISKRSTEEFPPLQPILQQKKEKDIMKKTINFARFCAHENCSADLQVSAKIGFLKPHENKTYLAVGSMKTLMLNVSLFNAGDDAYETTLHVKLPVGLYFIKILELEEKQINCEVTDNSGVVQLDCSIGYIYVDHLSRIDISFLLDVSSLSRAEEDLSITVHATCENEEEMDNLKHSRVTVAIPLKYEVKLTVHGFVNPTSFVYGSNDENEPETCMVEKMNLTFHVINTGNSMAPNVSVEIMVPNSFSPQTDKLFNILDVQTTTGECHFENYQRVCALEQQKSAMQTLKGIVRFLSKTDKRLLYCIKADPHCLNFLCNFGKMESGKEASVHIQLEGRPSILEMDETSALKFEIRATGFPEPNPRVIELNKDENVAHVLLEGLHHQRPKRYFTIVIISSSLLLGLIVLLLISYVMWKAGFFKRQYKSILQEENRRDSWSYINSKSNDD
Chain of α4β1 (P05556 21-798): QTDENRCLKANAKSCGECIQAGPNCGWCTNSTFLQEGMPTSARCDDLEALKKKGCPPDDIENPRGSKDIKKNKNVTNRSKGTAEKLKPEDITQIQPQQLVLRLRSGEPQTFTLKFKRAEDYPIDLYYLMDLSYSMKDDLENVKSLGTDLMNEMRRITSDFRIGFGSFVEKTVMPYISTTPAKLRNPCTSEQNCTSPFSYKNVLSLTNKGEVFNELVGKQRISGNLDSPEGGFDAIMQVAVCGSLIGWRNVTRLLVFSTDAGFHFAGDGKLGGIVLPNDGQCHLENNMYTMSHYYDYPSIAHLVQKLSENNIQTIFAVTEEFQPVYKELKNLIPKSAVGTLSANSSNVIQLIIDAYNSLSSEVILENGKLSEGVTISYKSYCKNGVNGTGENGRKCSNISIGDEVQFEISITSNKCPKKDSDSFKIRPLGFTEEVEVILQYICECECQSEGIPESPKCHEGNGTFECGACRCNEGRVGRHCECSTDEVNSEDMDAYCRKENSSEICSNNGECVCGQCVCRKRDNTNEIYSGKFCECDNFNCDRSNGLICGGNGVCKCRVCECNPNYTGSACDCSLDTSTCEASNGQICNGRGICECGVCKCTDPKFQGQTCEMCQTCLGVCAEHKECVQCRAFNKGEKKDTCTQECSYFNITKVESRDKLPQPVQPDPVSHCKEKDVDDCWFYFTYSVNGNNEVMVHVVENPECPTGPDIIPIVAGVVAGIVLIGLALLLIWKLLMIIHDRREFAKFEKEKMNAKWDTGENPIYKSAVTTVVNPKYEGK
T1 sequence (Q00651 34-1039 limits assumed): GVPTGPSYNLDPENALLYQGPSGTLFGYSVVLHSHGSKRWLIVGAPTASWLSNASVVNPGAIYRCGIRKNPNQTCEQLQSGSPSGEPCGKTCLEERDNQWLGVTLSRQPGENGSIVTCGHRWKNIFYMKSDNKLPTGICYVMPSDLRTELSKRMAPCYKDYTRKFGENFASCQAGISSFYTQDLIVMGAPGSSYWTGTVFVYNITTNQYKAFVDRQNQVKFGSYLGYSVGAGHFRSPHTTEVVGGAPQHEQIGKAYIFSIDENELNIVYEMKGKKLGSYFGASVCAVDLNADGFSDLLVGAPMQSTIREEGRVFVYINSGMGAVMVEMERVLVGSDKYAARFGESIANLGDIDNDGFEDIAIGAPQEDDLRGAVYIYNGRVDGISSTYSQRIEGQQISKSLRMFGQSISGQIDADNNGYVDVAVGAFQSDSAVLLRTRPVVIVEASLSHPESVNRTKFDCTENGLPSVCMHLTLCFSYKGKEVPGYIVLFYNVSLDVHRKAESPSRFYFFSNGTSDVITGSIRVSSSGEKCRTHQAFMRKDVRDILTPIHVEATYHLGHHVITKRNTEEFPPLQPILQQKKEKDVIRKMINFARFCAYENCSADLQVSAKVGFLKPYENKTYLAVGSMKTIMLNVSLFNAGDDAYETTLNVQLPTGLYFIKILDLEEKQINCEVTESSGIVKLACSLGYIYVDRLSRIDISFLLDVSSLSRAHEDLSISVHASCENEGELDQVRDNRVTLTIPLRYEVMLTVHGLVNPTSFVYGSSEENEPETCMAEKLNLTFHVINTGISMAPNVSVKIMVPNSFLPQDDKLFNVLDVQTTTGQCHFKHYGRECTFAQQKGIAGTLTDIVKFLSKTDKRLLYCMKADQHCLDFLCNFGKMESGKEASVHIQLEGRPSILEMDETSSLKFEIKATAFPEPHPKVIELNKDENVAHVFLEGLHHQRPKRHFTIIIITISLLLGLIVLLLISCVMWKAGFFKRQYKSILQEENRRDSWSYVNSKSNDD
T1 sequence (P26011 20-806): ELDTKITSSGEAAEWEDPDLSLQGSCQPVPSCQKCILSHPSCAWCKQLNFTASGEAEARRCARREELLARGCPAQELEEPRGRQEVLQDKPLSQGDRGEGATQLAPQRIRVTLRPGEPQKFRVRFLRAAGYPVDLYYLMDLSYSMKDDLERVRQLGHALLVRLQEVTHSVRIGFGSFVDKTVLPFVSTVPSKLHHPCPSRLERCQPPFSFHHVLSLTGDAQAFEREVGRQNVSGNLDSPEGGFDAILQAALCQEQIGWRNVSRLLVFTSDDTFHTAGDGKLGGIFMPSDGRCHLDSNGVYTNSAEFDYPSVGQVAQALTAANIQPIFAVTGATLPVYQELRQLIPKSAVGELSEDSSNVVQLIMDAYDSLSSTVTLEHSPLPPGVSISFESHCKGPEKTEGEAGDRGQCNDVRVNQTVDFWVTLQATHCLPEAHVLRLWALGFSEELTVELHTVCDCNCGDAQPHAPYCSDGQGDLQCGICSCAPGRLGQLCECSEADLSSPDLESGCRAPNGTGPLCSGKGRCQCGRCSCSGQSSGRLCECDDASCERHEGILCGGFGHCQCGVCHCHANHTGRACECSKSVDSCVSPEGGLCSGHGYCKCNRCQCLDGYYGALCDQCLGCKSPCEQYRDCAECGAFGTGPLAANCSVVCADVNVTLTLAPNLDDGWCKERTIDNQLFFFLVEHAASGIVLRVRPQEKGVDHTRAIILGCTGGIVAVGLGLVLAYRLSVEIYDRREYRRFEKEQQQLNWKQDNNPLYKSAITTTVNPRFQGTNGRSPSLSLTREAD

For orientation: IC50 means the point on the concentration scale where inhibition reaches its midpoint. The half-life is the time needed for the level to fall by half in the phase considered. In the case of `CC(=O)N[C@H]1CSSC(C)(C)[C@@H](C(=O)N[C@@H](Cc2c[nH]c3ccccc23)C(=O)N[C@H](CCCCNC(=O)COCC(=O)NCCCC[C@@H](NC(=O)[C@H](Cc2c[nH]c3ccccc23)NC(=O)[C@H]2NC(=O)[C@H](CC(C)C)NC(=O)[C@H]([C@@H](C)O)NC(=O)[C@H](CC(=O)O)NC(=O)[C@H](CO)NC(=O)[C@H](CCCNC(=N)N)N(C)C(=O)[C@@H](NC(C)=O)CSSC2(C)C)C(N)=O)C(N)=O)NC(=O)[C@H](CC(C)C)NC(=O)[C@H]([C@@H](C)O)NC(=O)[C@H](CC(=O)O)NC(=O)[C@H](CO)NC(=O)[C@H](CCCNC(=N)N)N(C)C1=O` [compound 204, (Ac-C-N-Me-R-S-D-T-L-Pen-W-k-NH2)2-DIG] (I: Ac-C[NMeR]SDTL[Pen]W[dK]-NH2 / II: Ac-C[NMeR]SDTL[Pen]W[dK]-NH2; disulfide I:1-I:7, II:1-II:7 (inferred); linker I:9-II:9 via Diglycolyl (inferred)), on α4β1, the IC50 is over 100000 nM. The compound also yielded a half-life at 20 μM in series [1] of over 6 h.

For `CC(=O)N[C@@H]1C(=O)N(C)[C@@H](CCCNC(=N)N)C(=O)N[C@@H](CO)C(=O)N[C@@H](CC(=O)O)C(=O)N[C@@H]([C@@H](C)O)C(=O)N[C@@H](CC(C)C)C(=O)N[C@H](C(=O)N[C@@H](Cc2c[nH]c3ccccc23)C(=O)N[C@H](CCCCNC(=O)COCC(=O)NCCCC[C@@H](NC(=O)[C@H](Cc2c[nH]c3ccccc23)NC(=O)[C@H]2NC(=O)[C@H](CC(C)C)NC(=O)[C@H]([C@@H](C)O)NC(=O)[C@H](CC(=O)O)NC(=O)[C@H](CO)NC(=O)[C@H](CCCNC(=N)N)N(C)C(=O)[C@@H](NC(C)=O)C(C)(C)SSC2(C)C)C(N)=O)C(N)=O)C(C)(C)SSC1(C)C` [compound 209, (Ac-Pen-N-Me-R-S-D-T-L-Pen-W-k-NH2)2-DIG] (I: Ac-[Pen][NMeR]SDTL[Pen]W[dK]-NH2 / II: Ac-[Pen][NMeR]SDTL[Pen]W[dK]-NH2; disulfide I:1-I:7, II:1-II:7 (inferred); linker I:9-II:9 via Diglycolyl (inferred)), the IC50 is over 100000 nM on α4β1 and 51 nM at α4β7. In series [1], this compound showed a half-life at 20 μM of over 3 h.

`CC(=O)N[C@@H]1C(=O)N(C)[C@@H](CCCNC(=N)N)C(=O)N[C@@H](CO)C(=O)N[C@@H](CC(=O)O)C(=O)N[C@@H]([C@@H](C)O)C(=O)N[C@@H](CC(C)C)C(=O)N[C@H](C(=O)N[C@@H](Cc2c[nH]c3ccccc23)C(=O)N[C@H](CCC(=O)O)C(=O)N[C@H](CCCCNC(=O)COCC(=O)NCCCC[C@@H](NC(=O)[C@@H](CCC(=O)O)NC(=O)[C@H](Cc2c[nH]c3ccccc23)NC(=O)[C@H]2NC(=O)[C@H](CC(C)C)NC(=O)[C@H]([C@@H](C)O)NC(=O)[C@H](CC(=O)O)NC(=O)[C@H](CO)NC(=O)[C@H](CCCNC(=N)N)N(C)C(=O)[C@@H](NC(C)=O)C(C)(C)SSC2(C)C)C(N)=O)C(N)=O)C(C)(C)SSC1(C)C` [compound 211, (Ac-Pen-N-Me-R-S-D-T-L-Pen-W-e-k-NH2)2-DIG] (I: Ac-[Pen][NMeR]SDTL[Pen]W[dE][dK]-NH2 / II: Ac-[Pen][NMeR]SDTL[Pen]W[dE][dK]-NH2; disulfide I:1-I:7, II:1-II:7 (inferred); linker I:10-II:10 via Diglycolyl (inferred)): the IC50 on α4β1 is over 100000 nM; at α4β7 it was 7.3 nM. This compound yielded a half-life at 20 μM in series [1] of over 1 h.

With `CC(=O)N[C@@H]1C(=O)N(C)[C@@H](CCCNC(=N)N)C(=O)N[C@@H](CO)C(=O)N[C@@H](CC(=O)O)C(=O)N[C@@H]([C@@H](C)O)C(=O)N[C@@H](CC(C)C)C(=O)N[C@H](C(=O)N[C@@H](Cc2ccc3ccccc3c2)C(=O)N[C@@H](CCC(=O)O)C(=O)N[C@H](CCCCNC(=O)COCC(=O)NCCCC[C@@H](NC(=O)[C@H](CCC(=O)O)NC(=O)[C@H](Cc2ccc3ccccc3c2)NC(=O)[C@H]2NC(=O)[C@H](CC(C)C)NC(=O)[C@H]([C@@H](C)O)NC(=O)[C@H](CC(=O)O)NC(=O)[C@H](CO)NC(=O)[C@H](CCCNC(=N)N)N(C)C(=O)[C@@H](NC(C)=O)C(C)(C)SSC2(C)C)C(N)=O)C(N)=O)C(C)(C)SSC1(C)C` [compound 212, (Ac-Pen-N-Me-R-S-D-T-L-Pen-2-Nal-E-k-NH2)2-DIG] (I: Ac-[Pen][NMeR]SDTL[Pen][2Nal]E[dK]-NH2 / II: Ac-[Pen][NMeR]SDTL[Pen][2Nal]E[dK]-NH2; disulfide I:1-I:7, II:1-II:7 (inferred); linker I:10-II:10 via Diglycolyl (inferred)), the IC50 on α4β1 is over 100000 nM. The half-life at 20 μM in series [1] is 0.65 h.

`CC(=O)N[C@@H]1C(=O)N(C)[C@@H](CCCNC(=N)N)C(=O)N[C@@H](CO)C(=O)N[C@@H](CC(=O)O)C(=O)N[C@@H]([C@@H](C)O)C(=O)N[C@@H](CC(C)C)C(=O)N[C@H](C(=O)N[C@@H](Cc2c[nH]c3ccccc23)C(=O)N[C@@H](CCC(=O)O)C(=O)N(C)[C@H](CCCCNC(=O)COCC(=O)NCCCC[C@H](C(N)=O)N(C)C(=O)[C@H](CCC(=O)O)NC(=O)[C@H](Cc2c[nH]c3ccccc23)NC(=O)[C@H]2NC(=O)[C@H](CC(C)C)NC(=O)[C@H]([C@@H](C)O)NC(=O)[C@H](CC(=O)O)NC(=O)[C@H](CO)NC(=O)[C@H](CCCNC(=N)N)N(C)C(=O)[C@@H](NC(C)=O)C(C)(C)SSC2(C)C)C(N)=O)C(C)(C)SSC1(C)C` [compound 214, [Ac-Pen-(N-Me-Arg)-Ser-Asp-Thr-Leu-Pen-Trp-Glu-(N-Me-D-Lys)-NH2]2-DIG] (I: Ac-[Pen][NMeR]SDTL[Pen]WE[dNMeK]-NH2 / II: Ac-[Pen][NMeR]SDTL[Pen]WE[dNMeK]-NH2; disulfide I:1-I:7, II:1-II:7 (inferred); linker I:10-II:10 via Diglycolyl (inferred)): the IC50 on α4β7 turned out to be 1.1 nM. The same compound came in with a half-life at 20 μM in series [1] of over 6 h.

Turning to `CC(=O)N[C@@H]1C(=O)N(C)[C@@H](CCCNC(=N)N)C(=O)N[C@@H](CO)C(=O)N[C@@H](CC(=O)O)C(=O)N[C@@H]([C@@H](C)O)C(=O)N[C@@H](CC(C)C)C(=O)N[C@H](C(=O)N[C@@H](Cc2c[nH]c3ccccc23)C(=O)N[C@@H](CCC(=O)O)C(=O)N(C)[C@@H](CCCCNC(=O)COCC(=O)NCCCC[C@@H](C(N)=O)N(C)C(=O)[C@H](CCC(=O)O)NC(=O)[C@H](Cc2c[nH]c3ccccc23)NC(=O)[C@H]2NC(=O)[C@H](CC(C)C)NC(=O)[C@H]([C@@H](C)O)NC(=O)[C@H](CC(=O)O)NC(=O)[C@H](CO)NC(=O)[C@H](CCCNC(=N)N)N(C)C(=O)[C@@H](NC(C)=O)C(C)(C)SSC2(C)C)C(N)=O)C(C)(C)SSC1(C)C` [compound 215, [Ac-Pen-(N-Me-Arg)-Ser-Asp-Thr-Leu-Pen-Trp-Glu-(N-Me-Lys)-NH2]2-DIG] (I: Ac-[Pen][NMeR]SDTL[Pen]WE[NMeK]-NH2 / II: Ac-[Pen][NMeR]SDTL[Pen]WE[NMeK]-NH2; disulfide I:1-I:7, II:1-II:7 (inferred); linker I:10-II:10 via Diglycolyl (inferred)), at α4β7, the IC50 was 0.9 nM. Also, the half-life at 20 μM in series [1] was over 6 h.
